This is an account of results in patent US11980689B2 (AVALYN PHARMA INC., priority 2013, dated 2024).

Series [1] deals with COL1A1-PDGFβ-transformed fibroblasts, DFSP and giant-cell fibrosarcoma cell cultures. As to conditions: in vitro and in vivo; cited from earlier work.
Series [2] deals with newly diagnosed CML. As to conditions: cytogenetic and haematological response, time to progression; cited from earlier work.
Series [3] concerns primary human fibroblasts. Briefly: PDGF-induced fibroblast proliferation (MTS assay). Conditions: for Proliferation (relative proliferation), Short Duration / Proliferation (relative proliferation), Long Duration: 20 ng/mL PDGF-BB, 72 hours, MTS; for inhibiting PDGF-induced fibroblast proliferation (in words) / cytotoxicity of drug concentrations tested: 0.5 to 50 nM; for cytotoxicity of drug concentrations tested: data not shown; for IC50: read-out: fifty-percent inhibitory concentration (IC50), PDGF-induced fibroblast proliferation, short-term exposure.

For series [4], the system named is cancer. As to conditions: cited from earlier work.
For series [5], the system named is sol elastase of CF sputum. Conditions: unprocessed CF sputum directly treated; cited from earlier work.
For series [6], the target named is T1, purified human neutrophil elastase (Homo sapiens, UniProt P08246).
T1 sequence (P08246 30-247 limits assumed): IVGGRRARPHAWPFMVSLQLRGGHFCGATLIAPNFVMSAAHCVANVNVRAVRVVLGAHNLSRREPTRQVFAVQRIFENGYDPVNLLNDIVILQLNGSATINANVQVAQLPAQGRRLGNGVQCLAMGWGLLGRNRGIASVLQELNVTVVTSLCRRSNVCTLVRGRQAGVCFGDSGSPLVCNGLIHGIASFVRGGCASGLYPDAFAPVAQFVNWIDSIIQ
Conditions: cited from earlier work.

Series [7] relates to SCLC. As to conditions: oral 600 mg daily up to 12 months; cited from earlier work.
The target of series [8] is c-kit (Homo sapiens, UniProt P10721). As to conditions: cited from earlier work.
c-kit, sequence (P10721 26-976): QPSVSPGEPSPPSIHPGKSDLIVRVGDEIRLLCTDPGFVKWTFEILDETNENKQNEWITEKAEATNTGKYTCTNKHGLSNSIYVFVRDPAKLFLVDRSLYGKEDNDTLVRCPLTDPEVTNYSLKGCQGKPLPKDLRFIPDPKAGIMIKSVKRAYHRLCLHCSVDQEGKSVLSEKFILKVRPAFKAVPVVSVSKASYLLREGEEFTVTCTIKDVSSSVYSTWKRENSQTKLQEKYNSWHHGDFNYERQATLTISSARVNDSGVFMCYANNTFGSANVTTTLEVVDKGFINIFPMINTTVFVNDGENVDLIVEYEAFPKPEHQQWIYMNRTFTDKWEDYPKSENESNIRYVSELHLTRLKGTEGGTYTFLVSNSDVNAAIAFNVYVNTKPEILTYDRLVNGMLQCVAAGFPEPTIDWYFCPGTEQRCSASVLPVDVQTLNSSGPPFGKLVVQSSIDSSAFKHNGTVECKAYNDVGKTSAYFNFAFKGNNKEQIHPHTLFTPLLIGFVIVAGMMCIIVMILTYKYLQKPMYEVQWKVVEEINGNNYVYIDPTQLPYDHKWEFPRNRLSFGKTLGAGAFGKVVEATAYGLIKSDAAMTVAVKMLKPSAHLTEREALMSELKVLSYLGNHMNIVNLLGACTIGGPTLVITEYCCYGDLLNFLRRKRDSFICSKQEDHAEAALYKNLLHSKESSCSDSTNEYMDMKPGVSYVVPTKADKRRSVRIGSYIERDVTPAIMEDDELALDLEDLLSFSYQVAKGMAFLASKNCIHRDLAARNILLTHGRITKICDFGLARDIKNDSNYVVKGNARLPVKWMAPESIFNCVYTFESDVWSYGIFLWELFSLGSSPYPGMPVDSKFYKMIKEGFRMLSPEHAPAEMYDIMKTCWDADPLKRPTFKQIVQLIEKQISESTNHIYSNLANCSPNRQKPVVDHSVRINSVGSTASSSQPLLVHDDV
Series [9] concerns relapsed/refractory multiple myeloma. As to conditions: cited from earlier work.
For series [10] the following is noted: intravenous; cited from earlier work.
For series [11], the system named is bleomycin-induced pulmonary fibrosis. As to conditions: both agents from Days 14; cited from earlier work.
The subject of series [12] is lung fibroblasts. As to conditions: 800 μg/ml of AGP, in vitro; cited from earlier work.
The mark [13] stands for this setting: 0.5 nM drug 30 min pretreatment then washed.
Where [14] appears, read: 5.0 nM drug 30 min pretreatment then washed.
Setting [15] is: 50.0 nM drug 30 min pretreatment then washed.
The mark [16] stands for this setting: bortezomib 1.3 mg/m2 vs high-dose dexamethasone.

Structures can show the parent of a compound that is named as a salt. Where only a bound is given, the exact number is not on record here.

Consider `Cc1ccc(NC(=O)c2ccc(CN3CCN(C)CC3)cc2)cc1Nc1nccc(-c2cccnc2)n1` [Glivec], for which the effect on cells result in series [1] is “inhibited”. Further, the “efficacy vs interferon and low-dose cytarabine” value in [2] was “superior efficacy”.
As for `CNC(=O)c1cc(Oc2ccc(NC(=O)Nc3ccc(Cl)c(C(F)(F)F)c3)cc2)ccn1` [Sorafinib, sorafinib], the “Proliferation (relative proliferation), Short Duration” value in series [3] (setting [13]) is 0.117; in series [3] (setting [14]) it was −0.010; in [3] (setting [15]) it was −0.147. In addition, the “Proliferation (relative proliferation), Long Duration” value was 0.313 in series [3] (0.5 nM drug kept in media), 0.175 in [3] (5.0 nM drug kept in media) and 0.130 in series [3] (50.0 nM drug kept in media). For the same molecule, the “inhibiting PDGF-induced fibroblast proliferation (in words)” value in [3] is “dose-responsive”. Also, the “cytotoxicity of drug concentrations tested” value in series [3] is recorded as “not cytotoxic”. The IC50 in series [3] was around 30 nM.
In the case of `N#CC1(c2ccc(NC(=O)c3cccnc3NCc3ccncc3)cc2)CCCC1` [Apatinib], the dose limiting toxicities in series [4] (1000 mg/day) is listed as 3 of 3. Further, in series [4] (65 cancer patients, Phase I/II), the complete response is 1.54%, the partial response is reported as 12.31%, the progressive disease is given as 20% and the stable disease is 66.15%. The maximum tolerated dose in series [4] (human, in vivo) is 850 mg/day.
On to `O=C(O)CCCC[C@@H](S)CCS` (racemic) [DHLA, dihydrolipoic acid], for which, in [5], the “increase of sol elastase activity” value is “did not increase”. Besides, the “inhibition of purified human neutrophil elastase (in words)” value in series [6] is recorded as “inhibited”.
For the molecule `Cc1ccc(NC(=O)c2ccc(CN3CCN(C)CC3)cc2)cc1Nc1nccc(-c2cccnc2)n1` [imatinib mesylate], the antitumor activity result in series [7] is recorded as “no observed antitumor activity”. Further, the “signal transduction cascade triggered by c-kit activation” value in [8] is “sufficiently blocked”.
As for `CC(C)C[C@H](NC(=O)[C@H](Cc1ccccc1)NC(=O)c1cnccn1)B(O)O` [Bortezomib], in series [9] (setting [16]), the 1-year survival was 80% and the “median TTP” value was 6.2 months. Moreover, the “patients with peripheral neuropathy” value in series [9] (human, in vivo) is 30%. Also, in [10], the clearance result was “rapidly cleared” and the “time to peak concentrations” value was “about 30 minutes”.
`CC[C@H]1OC(=O)[C@H](C)[C@@H](O[C@H]2C[C@@](C)(OC)[C@@H](O)[C@H](C)O2)[C@H](C)[C@@H](O[C@@H]2O[C@H](C)C[C@H](N(C)C)[C@H]2O)[C@](C)(OC)C[C@@H](C)C(=O)[C@H](C)[C@@H](O)[C@]1(C)O` [clarithromycin]: in series [11], the “bleomycin-induced pulmonary fibrosis, combined use with imatinib” value is given as “attenuated”. Besides, in series [12], the “concentration required to abrogate the effects of AGP” value was above 10 µM.
Consider DNase, for which the “increase of sol elastase activity” value in series [5] is recorded as 190%.
As for `CC[C@H]1OC(=O)[C@H](C)[C@@H](O[C@H]2C[C@@](C)(OC)[C@@H](O)[C@H](C)O2)[C@H](C)[C@@H](O[C@@H]2O[C@H](C)C[C@H](N(C)C)[C@H]2O)[C@](C)(O)C[C@@H](C)C(=O)[C@H](C)[C@@H](O)[C@]1(C)O` [erythromycin], the “bleomycin-induced pulmonary fibrosis, combined use with imatinib” value in [11] is “attenuated”. Besides, in series [12], the “concentration required to abrogate the effects of AGP” value is listed as “more than 1 μM”.
Turning to `COC(=O)c1ccc2c(c1)NC(=O)/C2=C(\Nc1ccc(N(C)C(=O)CN2CCN(C)CC2)cc1)c1ccccc1` [Vargatef], the “Proliferation (relative proliferation), Short Duration” value in [3] (setting [13]) was 0.115; in [3] (setting [14]), 0.011; in series [3] (setting [15]), −0.175. Moreover, the figures for the “Proliferation (relative proliferation), Long Duration” value in series [3] (0.5 nM drug kept in media), in series [3] (5.0 nM drug kept in media) and in series [3] (50.0 nM drug kept in media) were 0.003, −0.359 and −0.642, respectively. In addition, the “inhibiting PDGF-induced fibroblast proliferation (in words)” value in series [3] was “dose-responsive”. In addition, the “cytotoxicity of drug concentrations tested” value in [3] was “not cytotoxic”. The IC50 in series [3] is around 3 nM.

B1: reduced rhTrx: stable reduced form of recombinant human thioredoxin used as a single component (protein, UniProt P10599 2-105, looked up)
Thioredoxin: VKQIESKTAFQEALDAAGDKLVVVDFSATWCGPCKMIKPFFHSLSEKYSNVIFLEVDVDDCQDVASECEVKCMPTFQFFKKGQKVGEFSGANKEKLEATINELV
modifications: reduced form
B1: the “increase of sol elastase activity” value in series [5] is given as 60%. Besides, the “inhibition of purified human neutrophil elastase (in words)” value in series [6] is reported as “inhibited”.
